Source: patent publication US6537998B1, “Gonadotropin-releasing hormone receptor antagonists and methods relating thereto” (Neurocrine Biosciences, Inc., priority 1999, dated 2003)

target: T1, GnRH receptor (Homo sapiens, UniProt P30968); assay: GnRH Receptor Membrane Binding Assay; settings: calculated from IC50 for displacement of radiolabeled ligand ([125I]-labeled GnRH peptide) from the GnRH receptor, Cheng-Prusoff
T1 construct: expressed in transfected cells
T1 sequence (P30968 1-328): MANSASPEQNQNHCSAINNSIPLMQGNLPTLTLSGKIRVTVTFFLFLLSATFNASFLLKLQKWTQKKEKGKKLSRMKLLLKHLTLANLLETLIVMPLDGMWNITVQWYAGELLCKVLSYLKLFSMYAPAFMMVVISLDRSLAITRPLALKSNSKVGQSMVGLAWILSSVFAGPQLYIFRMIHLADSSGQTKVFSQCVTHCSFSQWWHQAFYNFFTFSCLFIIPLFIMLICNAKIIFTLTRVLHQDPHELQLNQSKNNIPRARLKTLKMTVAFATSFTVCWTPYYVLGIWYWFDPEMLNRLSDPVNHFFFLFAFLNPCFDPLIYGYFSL
Procedure: Activity of GnRH receptor antagonists are typically calculated from the IC50 as the concentration of a compound necessary to displace 50% of the radiolabeled ligand from the GnRH receptor, and is reported as a “Ki” value calculated by the following equation: [formula]
where L=radioligand and KD=affinity of radioligand for receptor (Cheng and Prusoff, Biochem. Pharmacol. 22:3099, 1973). GnRH receptor antagonists of this invention have a Ki of 100 μM or less. In a preferred embodiment of this invention, the GnRH receptor antagonists have a Ki of less than 10 μM, and more preferably less than 1 μM. More preferred compounds include: 1-1, 1-2-5, 12, 13-15, 19, 21, 27, 31, 32, 34, 37, 55, 58, 64, 73, 2B, 2D, 3A, 3B, 3D, 4A, 4B, 4C, 4D, 4G, 4H, 5A and 5B (see Examples below).
Radio-iodination of GnRH Peptide
The GnRH analog is labeled by the chloramine-T method. To 10 μg of peptide in 20 μl of 0.5M sodium phosphate buffer, pH 7.6, is added 1 mCi of Na125I, followed by 22.5 μg chloramine-T and the mixture vortexed for 20 sec. The reaction is stopped by the addition of 60 μg sodium metabisulfite and the free iodine is removed by passing the iodinated mixture through a C-8 Sep-Pak cartridge (Millipore Corp., Milford, Mass.). The peptide is eluted with a small volume of 80% acetonitrile/water. The recovered labeled peptide is further purified by reverse phase HPLC on a Vydac C-18 analytical column (The Separations Group, Hesperia, Calif.) on a Beckman 334 gradient HPLC system using a gradient of acetonitrile in 0.1% TFA. The purified radioactive peptide is stored in 0.1% BSA/20% acetonitrile/0.1% TFA at […] and can be used for up to 4 weeks.
GnRH Receptor Membrane Binding Assay
Cells stably, or transiently, transfected with GnRH receptor expression vectors are harvested, resuspended in 5% sucrose and homogenized using a polytron homogenizer (2×15 sec). Nuclei are removed by centrifugation (3000×g for 5 min.), and the supernatant centrifuged (20,000×g for 30 min, 4° C.) to collect the membrane fraction. The final membrane preparation is resuspended in binding buffer (10 mM Hepes (pH 7.5), 150 mM NaCl, and 0.1% BSA) and stored at −70° C. Binding reactions are performed in a Millipore MultiScreen 96-well filtration plate assembly with polyethylenimine coated GF/C membranes. The reaction is initiated by adding membranes (40 ug protein in 130 ul binding buffer) to 50 ul of [^125I]-labeled GnRH peptide (˜100,000 cpm), and 20 ul of competitor at varying concentrations. The reaction is terminated after 90 minutes by application of vacuum and washing (2×) with phosphate buffered saline. Bound radioactivity is measured using 96-well scintillation counting (Packard Topcount) or by removing the filters from the plate and direct gamma counting. Ki values are calculated from competition binding data using non-linear least squares regression using the Prism software package (GraphPad Software).

Ki, < 1000 nM:
COc1cccc(-c2c(C)n(Cc3ccccc3F)c3nc(C(C)(C)C)c(CN(C)CCc4ccccn4)n3c2=O)c1 [Example 1-1, 2-(tert-butyl)-3-[N-methyl-N-(2-pyridylethyl)aminomethyl]-5-(3-methoxyphenyl)-6-methyl-7-(2-fluorobenzyl)immidazolo[1,2-a]pyrimid-4-one]
COc1cccc(-c2c(C)n(Cc3ccccc3F)c3nc(C(C)(C)C)c(CN(C)Cc4ccccn4)n3c2=O)c1 [Example 1-12]
Cc1c(-c2ccccc2)c(=O)n2c(CN(C)Cc3ccco3)c(C(C)(C)C)nc2n1Cc1ccccc1F [Example 1-19]
COc1cccc(-c2c(C)n(Cc3ccccc3F)c3nc(C4(C)CCOC4=O)c(CN(C)Cc4ccccc4)n3c2=O)c1 (stereo not shown) [Example 1-21]
COc1cccc(-c2c(C)n(Cc3ccccc3F)c3nc(C4(C)CCOC4=O)c(CN(C)Cc4ccco4)n3c2=O)c1 (stereo not shown) [Example 1-27]
CC(=O)c1cccc(-c2c(C)n(Cc3ccccc3F)c3nc(C(C)(C)C)c(CN(C)Cc4ccccc4)n3c2=O)c1 [Example 1-31]
CC(=O)c1cccc(-c2c(C)n(Cc3ccccc3F)c3nc(C(C)(C)C)c(CN(C)CCc4ccccn4)n3c2=O)c1 [Example 1-32]
COc1cccc(-c2c(C)n(Cc3ccccc3F)c3nc(C(C)(C)C)c(CN(C)[C@H](C)c4ccccc4)n3c2=O)c1 [Example 1-37]
Cc1c(-c2ccccc2F)c(=O)n2c(CN(C)CCc3ccccn3)c(C(C)(C)C)nc2n1Cc1ccccc1F [Example 1-55]
CCN(CC)CCN(C)Cc1c(C(C)(C)C)nc2n(Cc3ccccc3F)c(C)c(-c3ccc4c(c3)OCO4)c(=O)n12 [Example 1-73]
COC(=O)C(C)(C)c1nc2n(Cc3ccccc3F)c(C)c(-c3cccc(OC)c3)c(=O)n2c1CN(C)Cc1ccccc1 [Example 4A, 2-(1-methoxycarbonyl-1-methylethyl)-3-(N-methyl-N-benzylaminomethyl)-5-(3-methoxyphenyl)-6-methyl-7-(2-flurorbenzyl)imidazolo[1,2-a]pyrimid-4-one]
COC(=O)C(C)(C)c1nc2n(Cc3ccccc3F)c(C)c(-c3cccc(OC)c3)c(=O)n2c1CN(C)Cc1ccco1 [Example 4D]
COC(=O)C(C)(C)c1nc2n(Cc3ccccc3F)c(C)c(-c3cccc(OC)c3)c(=O)n2c1CNCc1ccccn1 [Example 4G]
COC(=O)C(C)(C)c1nc2n(Cc3ccccc3F)c(C)c(-c3cccc(OC)c3F)c(=O)n2c1CN(C)CCc1ccccn1 [Example 4H]
CCOC(=O)Cc1nc2n(Cc3ccccc3F)c(C)c(-c3cccc(OC)c3)c(=O)n2c1CN(C)CCc1ccccn1 [Example 5A, 2-Ethoxycarbonylmethyl-3-{N-methyl-N-[2-(2-pyridyl)ethyl]aminomethyl}-5-(3-methoxyphenyl)-6-methyl-7-(2-fluorobenzyl)imidazolo[1,2-a]pyrimid-4-one]
CCOC(=O)Cc1nc2n(Cc3ccccc3F)c(C)c(-c3cccc(OC)c3)c(=O)n2c1CN(C)Cc1ccccc1 [Example 5B, 2-ethoxycarbonylmethyl-3-{N-methyl-N-benzyl)-5-(3-methoxyphenyl)-6-methyl-7-(2-fluorobenzyl)imidazolo[1,2-a]pyrimid-4-one]
